Results reported in PubChem BioAssay AID248 (DTP/NCI, 2004).
Values joined by “and” are separate entries in the source; they are usually repeats but may differ in a detail not shown here. Equal entries are not always repeated. Toxic doses and inconclusive results are not listed.

Tested on: L1210 leukemia ip in BDF1 mice, survival T/C
Assay: NCI In Vivo Anticancer Drug Screen. Data for tumor model L1210 Leukemia (intraperitoneal) in B6D2F1 (BDF1) mice
Conditions: endpoint: mean survival time, higher = longer survival
Summary of the method: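 Transplantable tumor model; survival measured in treated vs vehicle control mice. Value = treated/control.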

[1] = dose: 100.0 mg/kg/injection, schedule: Q04DX002 (ip), vehicle: Klucel (hydroxypropylcellulose) (HPC)
[2] = dose: 200.0 mg/kg/injection, schedule: Q04DX002 (ip), vehicle: Klucel (hydroxypropylcellulose) (HPC)
[3] = dose: 400.0 mg/kg/injection, schedule: Q04DX002 (ip), vehicle: Klucel (hydroxypropylcellulose) (HPC)
[4] = dose: 50.0 mg/kg/injection, schedule: Q01DX009 (ip), vehicle: saline with Tween-80
[5] = dose: 100.0 mg/kg/injection, schedule: Q01DX009 (ip), vehicle: saline with Tween-80
[6] = dose: 12.5 mg/kg/injection, schedule: Q01DX009 (ip), vehicle: saline
[7] = dose: 25.0 mg/kg/injection, schedule: Q01DX009 (ip), vehicle: saline
[8] = dose: 50.0 mg/kg/injection, schedule: Q01DX009 (ip), vehicle: saline
[9] = dose: 100.0 mg/kg/injection, schedule: Q01DX009 (ip), vehicle: saline
[10] = dose: 200.0 mg/kg/injection, schedule: Q01DX009 (ip), vehicle: saline

`Cc1ccc(Cl)cc1NC(=S)Nc1ccccc1` was tested, and the T/C [1] was 100 % of control, the T/C [2] was 103 % of control and the T/C [3] was 106 % of control.

For `CCOC/C=C\c1ccccc1`, the T/C [4] was 95 % of control, the T/C [5] was 92 % of control and the T/C (dose: 200.0 mg/kg/injection, schedule: Q01DX009 (ip), vehicle: saline with Tween-80) was 92 % of control.

`Cc1ncc(CO)c(C)c1O` was tested, and the T/C (dose: 0.03 mg/kg/injection, schedule: Q02DX010 (ip), vehicle: saline) was 118 % of control, the T/C (dose: 0.04 mg/kg/injection, schedule: Q02DX010 (ip), vehicle: saline) was 118 % of control and the T/C (dose: 0.07 mg/kg/injection, schedule: Q02DX010 (ip), vehicle: saline) was 123 % of control. For the same molecule, the T/C (dose: 0.15 mg/kg/injection, schedule: Q02DX010 (ip), vehicle: saline) was 86 % of control, the T/C (dose: 0.23 mg/kg/injection, schedule: Q02DX010 (ip), vehicle: saline) was 86 % of control and the T/C [6] was 98 % of control. The T/C (dose: 22.81 mg/kg/injection, schedule: Q01DX Z (ip), vehicle: carboxymethylcellulose (CMC)) was 102 % of control, the T/C [7] was 95 % of control and the T/C (dose: 45.62 mg/kg/injection, schedule: Q01DX Z (ip), vehicle: carboxymethylcellulose (CMC)) was 101 % of control. The T/C [8] was 103 % of control, the T/C (dose: 91.25 mg/kg/injection, schedule: Q01DX Z (ip), vehicle: carboxymethylcellulose (CMC)) was 105 % of control and the T/C [9] was 102 % of control. For the same molecule, the T/C (dose: 182.3 mg/kg/injection, schedule: Q01DX Z (ip), vehicle: carboxymethylcellulose (CMC)) was 110 % of control and the T/C [10] was 108 % of control.

With `CC(C)CC(C)NCCOC(=O)c1ccc(N)cc1` (stereo not drawn) the T/C (dose: 9.38 mg/kg/injection, schedule: Q01DX001 (ip), vehicle: other) was 104 % of control, the T/C (dose: 18.75 mg/kg/injection, schedule: Q01DX001 (ip), vehicle: other) was 96 % of control and the T/C (dose: 37.5 mg/kg/injection, schedule: Q01DX001 (ip), vehicle: other) was 106 % of control. The T/C (dose: 75.0 mg/kg/injection, schedule: Q01DX001 (ip), vehicle: carboxymethylcellulose (CMC)) was 96 % of control.

In the case of `N#CCc1nn(-c2ccccc2)c(N)c1C#N`, the T/C (dose: 25.0 mg/kg/injection, schedule: Q01DX001 (ip), vehicle: Klucel (hydroxypropylcellulose) (HPC)) is reported as 93 % of control, the T/C (dose: 50.0 mg/kg/injection, schedule: Q01DX001 (ip), vehicle: Klucel (hydroxypropylcellulose) (HPC)) is reported as 100 % of control and the T/C (dose: 100.0 mg/kg/injection, schedule: Q01DX001 (ip), vehicle: Klucel (hydroxypropylcellulose) (HPC)) is reported as 107 % of control and 91 % of control. For the same molecule, the T/C (dose: 150.0 mg/kg/injection, schedule: Q01DX001 (ip), vehicle: Klucel (hydroxypropylcellulose) (HPC)) was 97 % of control.

In the case of `O=C(COc1ccc(Cl)cc1)OCCBr`, the T/C [1] is reported as 121 % of control, the T/C [2] is reported as 105 % of control and the T/C [3] is reported as 102 % of control.

`COc1ccc(CCCC(C)(C)O)cc1` was tested, and the T/C [4] was 94 % of control and the T/C [5] was 97 % of control.

`NC(=O)CNC1=C(N2CC2)C(=O)C(NCC(N)=O)=C(N2CC2)C1=O` was tested, and the T/C (dose: 0.12 mg/kg/injection, schedule: Q04DX003 (ip), vehicle: saline) was 106 % of control, the T/C (dose: 0.25 mg/kg/injection, schedule: Q04DX003 (ip), vehicle: saline) was 101 % of control and the T/C (dose: 0.5 mg/kg/injection, schedule: Q04DX003 (ip), vehicle: saline) was 116 % of control. For the same molecule, the T/C (dose: 1.0 mg/kg/injection, schedule: Q04DX003 (ip), vehicle: saline) was 119 % of control, the T/C (dose: 1.25 mg/kg/injection, schedule: Q01DX001 (ip), vehicle: saline) was 102 % of control and the T/C (dose: 1.25 mg/kg/injection, schedule: Q01DX009 (ip), vehicle: saline) was 102 % of control. The T/C (dose: 2.5 mg/kg/injection, schedule: Q01DX001 (ip), vehicle: saline) was 100 % of control, the T/C (dose: 2.5 mg/kg/injection, schedule: Q01DX009 (ip), vehicle: saline) was 124 % of control and the T/C (dose: 5.0 mg/kg/injection, schedule: Q01DX001 (ip), vehicle: saline) was 108 % of control. For the same molecule, the T/C (dose: 5.0 mg/kg/injection, schedule: Q01DX009 (ip), vehicle: saline) was 163 % of control, the T/C (dose: 8.0 mg/kg/injection, schedule: Q04DX003 (ip), vehicle: saline) was 193 % of control and the T/C (dose: 10.0 mg/kg/injection, schedule: Q01DX001 (ip), vehicle: saline) was 115 % of control. For the same molecule, the T/C (dose: 10.0 mg/kg/injection, schedule: Q01DX009 (ip), vehicle: saline) was 158 % of control and 191 % of control and the T/C (dose: 12.0 mg/kg/injection, schedule: Q04DX003 (ip), vehicle: saline) was 122 % of control.

`CC1CN1P(=O)(OCCC#N)N1CC1C` (stereo not drawn) was tested, and the T/C [8] was 99 % of control and 111 % of control, the T/C [9] was 110 % of control and 113 % of control and the T/C (dose: 132.0 mg/kg/injection, schedule: Q04DX003 (ip), vehicle: acetone) was 109 % of control. The T/C [10] was 108 % of control and the T/C (dose: 400.0 mg/kg/injection, schedule: Q01DX009 (ip), vehicle: saline) was 96 % of control.

With `CC(C)(COC(=O)c1ccc(N)cc1)NC1CCCCC1` the T/C (dose: 75.0 mg/kg/injection, schedule: Q01DX001 (ip), vehicle: saline) was 96 % of control.

For `Cc1ccc([N+](=O)[O-])cc1NC(=O)Nc1ccc(CCO)cc1`, the T/C (dose: 100.0 mg/kg/injection, schedule: Q01DX009 (ip), vehicle: Klucel (hydroxypropylcellulose) (HPC)) was 90 % of control and the T/C (dose: 200.0 mg/kg/injection, schedule: Q01DX009 (ip), vehicle: Klucel (hydroxypropylcellulose) (HPC)) was 93 % of control.

`C[Se]c1ncnc2c1c(C#N)cn2C1OC(CO)C(O)C1O` (stereo not drawn) was tested, and the T/C (dose: 12.5 mg/kg/injection, schedule: Q01DX005 (ip), vehicle: saline) was 123 % of control, the T/C [6] was 120 % of control and the T/C [7] was 124 % of control. The T/C (dose: 50.0 mg/kg/injection, schedule: Q01DX005 (ip), vehicle: saline) was 120 % of control and the T/C [8] was 94 % of control.

`Cc1cccc(OCCOC(=O)Nc2ccccc2C(F)(F)F)c1` was tested, and the T/C (dose: 100.0 mg/kg/injection, schedule: Q04DX003 (ip), vehicle: Klucel (hydroxypropylcellulose) (HPC)) was 87 % of control, the T/C (dose: 200.0 mg/kg/injection, schedule: Q04DX003 (ip), vehicle: Klucel (hydroxypropylcellulose) (HPC)) was 88 % of control and the T/C (dose: 400.0 mg/kg/injection, schedule: Q04DX003 (ip), vehicle: Klucel (hydroxypropylcellulose) (HPC)) was 90 % of control.
